Laboratory results published in patent US9642854B2, “Flavanoid compounds and process for preparation thereof” (Council of Scientific & Industrial Research, priority 2009, dated 2017).

Tests used:
Type in all cases: cell-based, Helicobacter pylori
H. pylori [1] = assay: Anti H. pylori screening by disc diffusion susceptibility assay; conditions: 100 and 200 mg/disc (so in the source), 72 h
In short: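 Clinical strains HP001, HP002 and ATCC 700392, 43504, 49503 (10^8 CFU/mL) spread on supplemented BHI agar; 5 mm discs loaded with 100 and 200 […] compound in ethanol or DMSO. Zones read after 72 h microaerophilic growth at 37 °C; scored + (10-20 mm), ++ (20-30 mm), +++ (>30 mm), Nil <10 mm.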

H. pylori [2] = assay: Anti H. pylori spectrum (MIC) by agar dilution method; conditions: for MIC50: MIC against 50% of the strains of the panel; for MIC Range: panel of 6 clinical isolates and 4 standard strains
In short: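 Agar dilution per CLSI against six clinical isolates and four standard strains on BHI agar with 7% FCS, 0.5% IsoVitalex and DENT. Inoculum ~10^8 CFU/mL; 2-fold compound dilutions from 1.56-100; 72 h microaerophilic at 37 °C. MIC read visually as no growth, in duplicate; MIC50 covers 50% of strains.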

H. pylori [3] = assay: Anti H. pylori screening by disc diffusion susceptibility assay; parameters: key: strongly active (3^+, diameter>30 mm); intermediate active (2^+, ˜20-30 mm diameter); moderately active (1^+, ˜10-20 mm diameter); not active (<10 mm diameter); conditions: two doses, majority of the strains
Protocol: (§1) The discs were impregnated with […] of each of the compounds, dissolved either in ethanol or DMSO, and the zone of inhibition was measured after 72 h of growth under microaerophilic conditions at 37° C. Inhibition zone diameter ranging 10-20 mm was given a score of ^+, 20-30 mm as ^++ and that of >30 mm as ^+++, as obtained employing dose range of […]/disc. The detailed structural information of the molecules is provided under ‘Description of the Compounds’.
(§2) Methods and protocols for the determination of inhibition zone diameter are as stated under Experiment 1, and that of MIC values by microbroth dilution assay as in Experiment 3. ‘Nil’ means zone of inhibition below 10 mm.
(§3) The anti H. pylori activity of all 16 flavonoid molecules, 2 naturally isolated and 14 synthetic derivatives, was screened by disc diffusion sensitivity assay employing 2 clinical strains HP001 and HP002, and three standard strains ATCC® 700392, 43504 and 49503. A 0.5 mL inoculum (10^8 CFU/mL) for each bacterial strain tested was flooded on freshly prepared Brain Heart Infusion (BHI) agar plates supplemented with 7% FCS, 0.5% IsoVitalex and 0.0025% DENT® and the discs (5 mm diameter) containing different compounds or antibiotics (dissolved either in ethanol or DMSO) were placed on the agar surface. After incubation for 3 days in a microaerophilic atmosphere at 37° C., the diameter of the zone of inhibition was measured (Glupczynsky, 1996; McNulty et al., 2002).

H. pylori [4] = assay: as above; parameters: key: strongly active (diameter>30 mm) and were given a score of 3^+; intermediate active (^˜20-30 mm diameter) and were given a score of 2^+; moderately active (^˜10-20 min diameter) and were given a score of 1^+; not active (>10 mm diameter); conditions: 100 and 200 μg/disc, majority of the strains
Protocol: as §1, §2, §3

| SMILES | Inhibition zone diameter (score) (H. pylori [1]; ATCC standard strain 43504) | Inhibition zone diameter (score) (H. pylori [1]; ATCC standard strain 49503) | Inhibition zone diameter (score) (H. pylori [1]; ATCC standard strain 700392) | Inhibition zone diameter (score) (H. pylori [1]; clinical strain HP001) | Inhibition zone diameter (score) (H. pylori [1]; clinical strain HP002) | MIC50 (H. pylori [2]) | MIC Range (H. pylori [2]) | Activity class by inhibition zone diameter (H. pylori [3]) | Activity class by inhibition zone diameter (H. pylori [4]) |
| --- | --- | --- | --- | --- | --- | --- | --- | --- | --- |
| O=c1cc(-c2ccccc2)oc2cc(O)cc(O)c12 [Chrysin, 5,7-Dihydroxy-2-phenyl-chromen-4-one, reference compound] | Nil (‘Nil’ means zone of inhibition below 10 mm) | Nil (‘Nil’ means zone of inhibition below 10 mm) | Nil (‘Nil’ means zone of inhibition below 10 mm) | Nil (‘Nil’ means zone of inhibition below 10 mm) | Nil (‘Nil’ means zone of inhibition below 10 mm) | much higher | much higher | not active | not active |
| CCCCCCCCCCCCCCCCC(=O)Oc1cc2oc(-c3ccccc3)cc(=O)c2c(O)c1OC [ORC-16, Heptadecanoic acid 5-hydroxy-6-methoxy-4-oxo-2-phenyl-4H-chromen-7-yl ester] | Nil (‘Nil’ means zone of inhibition below 10 mm) | Nil (‘Nil’ means zone of inhibition below 10 mm) | Nil (‘Nil’ means zone of inhibition below 10 mm) | Nil (‘Nil’ means zone of inhibition below 10 mm) | Nil (‘Nil’ means zone of inhibition below 10 mm) |  |  | not active | not active |
| O=c1cc(-c2ccccc2)oc2cc(OCCCN3CCOCC3)cc(O)c12 [CHM-2, 5-Hydroxy-7-(3-morpholin-4-yl-propoxy)-2-phenyl-chromen-4-one] | Nil (‘Nil’ means zone of inhibition below 10 mm) | Nil (‘Nil’ means zone of inhibition below 10 mm) | Nil (‘Nil’ means zone of inhibition below 10 mm) | Nil (‘Nil’ means zone of inhibition below 10 mm) | Nil (‘Nil’ means zone of inhibition below 10 mm) |  |  | not active | not active |
| COc1c(O)cc2oc(-c3ccccc3)cc(=O)c2c1O [Oroxylin A, reference compound] | Nil (‘Nil’ means zone of inhibition below 10 mm) | Nil (‘Nil’ means zone of inhibition below 10 mm) | Nil (‘Nil’ means zone of inhibition below 10 mm) | Nil (‘Nil’ means zone of inhibition below 10 mm) | Nil (‘Nil’ means zone of inhibition below 10 mm) | much higher | much higher | not active | not active |
| CN(C)CCCCCCOc1cc(O)c2c(=O)cc(-c3ccccc3)oc2c1 [CHN-1, 7-(6-Dimethylamino-hexyloxy)-5-hydroxy-2-phenyl-chromen-4-one] | Nil (‘Nil’ means zone of inhibition below 10 mm) | Nil (‘Nil’ means zone of inhibition below 10 mm) | Nil (‘Nil’ means zone of inhibition below 10 mm) | Nil (‘Nil’ means zone of inhibition below 10 mm) | Nil (‘Nil’ means zone of inhibition below 10 mm) |  |  | not active | not active |
